What was measured:
A2780 cells = assay: MTT cytotoxicity assay, A2780; type: cell-based, human; conditions: 72 h exposure
A2780cisR cells = assay: MTT cytotoxicity assay, A2780cisR; type: cell-based, human; conditions: for RF (resistance factor): IC50(A2780cisR)/IC50(A2780); for IC50: MTT assay, 72 h exposure, cisplatin-resistant A2780cisR, read-out: IC50 A2780cis
HEK293 cells = assay: MTT cytotoxicity assay, HEK293; type: cell-based, human; conditions: for SF (selectivity factor): IC50(HEK293)/IC50(A2780); for IC50: MTT assay, 72 h exposure, noncancerous cells
[1] = tested on: Staphylococcus aureus CECT 86 (ATCC 12600); assay: MIC microdilution, S. aureus; type: cell-based; conditions: planktonic cells; for S. aureus MIC50: growth inhibited at 50%; for S. aureus MIC100: lowest concentration completely inhibiting growth
Experimental: (§1) Wild-type P. aeruginosa PAO1 strain CECT 4122 (ATCC 15692) and S. aureus CECT 86 (ATCC 12600) were obtained from the Spanish Type Culture Collection (CECT). All strains were routinely cultivated in TSB medium (Sharlab, Spain) at 37 °C. MIC assays were determined by the microdilution method using TSB broth following the method described by the Clinical and Laboratory standards Institute.[94] In brief, compounds were diluted in a 96-well microtiter plate (tissue culture-treated polystyrene; […]

[2] = tested on: Pseudomonas aeruginosa PAO1 CECT 4122 (ATCC 15692); assay: MIC microdilution, P. aeruginosa; type: cell-based; conditions: planktonic cells; for P. aeruginosa MIC50: growth inhibited at 50%; for P. aeruginosa MIC100: lowest concentration completely inhibiting growth
Experimental: as §1

mouse R2 RNR protein = molecular target: T1, mouse R2 RNR protein (Mus musculus, UniProt P11157); assay: Tyrosyl radical reduction in R2 RNR protein by EPR; type: biochemical; conditions: 1:1 protein-to-compound ratio, 298 K, presence of DTT, within 90 s
T1 construct: made in house; host or cells: Escherichia coli
T1 sequence (P11157 1-390): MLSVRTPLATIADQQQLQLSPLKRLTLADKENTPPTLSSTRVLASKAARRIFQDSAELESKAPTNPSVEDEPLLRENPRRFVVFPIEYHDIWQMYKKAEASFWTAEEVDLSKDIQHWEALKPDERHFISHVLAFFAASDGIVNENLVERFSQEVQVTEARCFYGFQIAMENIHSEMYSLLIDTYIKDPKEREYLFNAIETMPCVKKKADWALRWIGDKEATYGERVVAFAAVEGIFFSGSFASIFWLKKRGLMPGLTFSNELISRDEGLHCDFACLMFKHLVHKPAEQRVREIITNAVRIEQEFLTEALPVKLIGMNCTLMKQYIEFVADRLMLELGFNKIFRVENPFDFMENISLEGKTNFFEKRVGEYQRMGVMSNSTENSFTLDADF
Experimental: The effects of the most cytotoxic complexes 2 and 5, and the corresponding proligands HL^2 and HL^5, on the mouse R2 tyrosyl radical were investigated by EPR spectroscopy at 30 K. The proligands and their Cu(II) complexes were incubated with the mouse R2 RNR protein at 1:1 protein-to-compound mole ratio at 298 K in the presence or absence of the reducing agent dithiothreitol (DTT), and the time-dependent reduction of the tyrosyl radical was monitored.[39] Tyrosyl radical reduction by the investigated compounds was observed only in the presence of DTT. Upon incubation with HL^2, HL^5, and 2, 5, 50% of tyrosyl radical was reduced within 90 s, after which no further reduction was observed (Figure S15). […] HL^2 and HL^5 (λmax = 312 and 320 nm, respectively) readily reacted with FeSO4·7H2O affording Fe(II) bis-ligand complexes (λmax = 373, 610 nm and λmax = 385, 645 nm, respectively) at both 1:1 and 1:2 Fe-to-ligand mole ratios. […]
The 9.4 GHz EPR spectra were recorded at 30 K on a Bruker EleXsys II E540 EPR spectrometer with an Oxford Instruments ESR900 helium cryostat, essentially as described previously.[51] […]

SMILES | IC50 (A2780 cells) | RF (resistance factor) (A2780cisR cells) | IC50 (A2780cisR cells) | SF (selectivity factor) (HEK293 cells) | IC50 (HEK293 cells) | S. aureus MIC50 [1] | S. aureus MIC100 [1] | P. aeruginosa MIC50 [2] | P. aeruginosa MIC100 [2] | tyrosyl radical reduced (mouse R2 RNR protein)
CN(C)C(=NN=Cc1ccc(CN2CCOCC2)cn1)[S][Cu][Cl] [complex 2, [Cu(L^2)Cl]] | 12 ± 2 nM | 2.5 | 30 ± 3 nM | 2.7 | 32 ± 8 nM | 2 µg/mL | 10 µg/mL | 70 µg/mL | 200 µg/mL | 50%
[Cl][Cu][S]C(=NN=Cc1ccc(CN2CCOCC2)cn1)Nc1ccccc1 [complex 5, [Cu(L^5)Cl]] | 9 ± 2 nM | 1.9 | 17 ± 2 nM | 2.2 | 20 ± 3 nM | 3 µg/mL | 10 µg/mL | 200 µg/mL | 450 µg/mL | 50%
